Target: T1, human p38 kinase alpha (Homo sapiens, UniProt Q16539)
T1 construct: GST (N, cleaved yes); made in house; host or cells: E. coli DH10B
Assay: p38 kinase in vitro assay, phosphorylation of biotinylated PHAS-I with 32P-ATP
Type: biochemical
Details: @ 1.0 uM

T1 sequence (Q16539 whole entry): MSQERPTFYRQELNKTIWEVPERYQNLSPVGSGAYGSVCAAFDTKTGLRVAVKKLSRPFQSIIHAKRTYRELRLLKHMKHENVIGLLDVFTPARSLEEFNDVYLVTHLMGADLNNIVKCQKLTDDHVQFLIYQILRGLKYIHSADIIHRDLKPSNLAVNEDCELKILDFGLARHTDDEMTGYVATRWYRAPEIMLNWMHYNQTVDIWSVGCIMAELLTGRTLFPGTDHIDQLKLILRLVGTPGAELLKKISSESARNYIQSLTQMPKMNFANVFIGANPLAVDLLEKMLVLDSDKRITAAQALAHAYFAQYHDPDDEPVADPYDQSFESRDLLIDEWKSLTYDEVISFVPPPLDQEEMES

SMILES	P38 alpha kinase % inhib @ conc. [% @]	P38 alpha kinase % inhib @ conc. (uM) [% @]
COc1ccccc1C(=O)NCCCc1[nH]nc(-c2ccc(F)cc2)c1-c1ccncc1 [Example B-1172]		68.0
CC(C)S(=O)(=O)NCCc1[nH]nc(-c2ccc(F)cc2)c1-c1ccncc1 [Example B-1015]		77.0

Second part, the compound after the results:

P38 alpha kinase % inhib @ conc. [% @]	P38 alpha kinase % inhib @ conc. (uM) [% @]	SMILES
71.0		COc1ccc(S(=O)(=O)NCCCc2[nH]nc(-c3ccc(F)cc3)c2-c2ccncc2)cc1 [Example B-1202]
85.0		O=C(NCCCc1[nH]nc(-c2ccc(F)cc2)c1-c1ccncc1)[C@H]1CCCN1 [Example B-1233]

Same assay, conditions: @ 1.0 uM; read-out: P38 alpha kinase % inhib @ conc.

SMILES	inhibition at 1 µM [%]
O=C(COCc1ccccc1)NCc1[nH]nc(-c2ccc(F)cc2)c1-c1ccncc1 [Example B-0006]	82
CCCCCc1ccc(C(=O)NCc2[nH]nc(-c3ccc(F)cc3)c2-c2ccncc2)cc1 [Example B-0012]	30

Same assay, conditions: @ 10.0 uM

SMILES	P38 alpha kinase % inhib @ conc. [% @]	P38 alpha kinase IC50, uM or % inhib @ conc. (uM): % inhib [% @]
CC[C@H](C)[C@H](NC(=O)Cn1nc(-c2ccc(F)cc2)c(-c2ccncc2)c1C)C(=O)OC [Example B-2353]	38.0	
Cc1c(-c2ccncc2)c(-c2ccc(F)cc2)nn1CC(=O)N(C)CCc1ccncc1 [Example B-2386]		38.0
Cc1c(-c2ccncc2)c(-c2ccc(F)cc2)nn1CC(=O)NC(Cc1ccccc1)c1ccccc1 (stereo not drawn) [Example B-2320]	44.0	
Cc1c(-c2ccncc2)c(-c2ccc(F)cc2)nn1CC(=O)NC1Cc2ccccc2C1 [Example B-2321]	69.0	
Cc1c(-c2ccncc2)c(-c2ccc(F)cc2)nn1CC(=O)N1CCOCC1 [Example B-2366]	70.0	
COC(=O)[C@H](CC(C)C)NC(=O)Cn1nc(-c2ccc(F)cc2)c(-c2ccncc2)c1C [Example B-2364]	47.0	
Cc1c(-c2ccncc2)c(-c2ccc(F)cc2)nn1CC(=O)Nc1cccc(Br)c1 [Example B-2426]		88.0

Same assay, conditions: Table 8; 1% DMSO; read-out: p38α Kinase Assay IC50

SMILES	IC50 [nM]
O=C(O)c1n[nH]c(-c2ccc(F)cc2)c1-c1ccncc1 [A-313, Step 1, 5-(4-fluorophenyl)-4-(4pyridinyl)-1H-pyrazole-3-carboxylic acid, monohydrate]	1340

Same assay, conditions: in vitro P38-alpha kinase inhibition; read-out: P38 alpha kinase IC50

SMILES	IC50 [nM]
O=C(NCCc1[nH]nc(-c2ccc(F)cc2)c1-c1ccncc1)c1cc(F)cc(C(F)(F)F)c1 [Example B-1141]	2470
CCNC(=O)NC(Cc1ccccc1)c1[nH]nc(-c2ccc(F)cc2)c1-c1ccncc1 (stereo not drawn) [Example B-0743]	1200
CCOC(=O)NC(Cc1ccccc1)c1[nH]nc(-c2ccc(F)cc2)c1-c1ccncc1 (stereo not drawn) [Example B-0748]	1200
O=C(NC(Cc1ccccc1)c1[nH]nc(-c2ccc(F)cc2)c1-c1ccncc1)c1ccc(I)cc1 (stereo not drawn) [Example B-0839]	4300
CC(NS(=O)(=O)c1cccc(Br)c1)c1[nH]nc(-c2ccc(F)cc2)c1-c1ccncc1 (stereo not drawn) [Example B-0632]	< 100
COc1cccc(CC(=O)NC(Cc2ccccc2)c2[nH]nc(-c3ccc(F)cc3)c2-c2ccncc2)c1 (stereo not drawn) [Example B-0849]	1250
CC(NC(=O)c1c(F)cccc1C(F)(F)F)c1[nH]nc(-c2ccc(F)cc2)c1-c1ccncc1 (stereo not drawn) [Example B-0686]	420
Cc1cc(C)c(C(=O)NC(C)c2[nH]nc(-c3ccc(F)cc3)c2-c2ccncc2)c(C)c1 (stereo not drawn) [Example B-0682]	760
Cc1cccc(C)c1NC(=O)NC(Cc1ccccc1)c1[nH]nc(-c2ccc(F)cc2)c1-c1ccncc1 (stereo not drawn) [Example B-0733]	32000
CCN(CC)C(=O)N[C@H](C)c1[nH]nc(-c2ccc(F)cc2)c1-c1ccncc1 [Example B-0420]	830
O=S(=O)(NCCc1[nH]nc(-c2ccc(F)cc2)c1-c1ccncc1)c1cccc(C(F)(F)F)c1 [Example B-1099]	260
C=CCNC(=O)NC(Cc1ccccc1)c1[nH]nc(-c2ccc(F)cc2)c1-c1ccncc1 (stereo not drawn) [Example B-0779]	500
C[C@@H](NS(=O)(=O)c1cccc(Cl)c1Cl)c1[nH]nc(-c2ccc(F)cc2)c1-c1ccncc1 [Example B-0445]	< 100
COc1ccc(S(=O)(=O)NC(Cc2ccccc2)c2[nH]nc(-c3ccc(F)cc3)c2-c2ccncc2)cc1 (stereo not drawn) [Example B-0719]	3400
CC(NC(=O)c1cc(F)c(F)cc1F)c1[nH]nc(-c2ccc(F)cc2)c1-c1ccncc1 (stereo not drawn) [Example B-0698]	2330
O=C(Nc1cccc(F)c1)NC(Cc1ccccc1)c1[nH]nc(-c2ccc(F)cc2)c1-c1ccncc1 (stereo not drawn) [Example B-0740]	4400
CC(NS(=O)(=O)c1ccc(-c2ccon2)s1)c1[nH]nc(-c2ccc(F)cc2)c1-c1ccncc1 (stereo not drawn) [Example B-0662]	< 100
O=C(NC(Cc1ccccc1)c1[nH]nc(-c2ccc(F)cc2)c1-c1ccncc1)c1ccc(F)c(F)c1F (stereo not drawn) [Example B-0845]	1780

SMILES	IC50 [nM]
Cc1cccc(Cl)c1S(=O)(=O)N[C@H](C)c1[nH]nc(-c2ccc(F)cc2)c1-c1ccncc1 [Example B-0467]	< 100
CCNC(=O)NC(C)c1[nH]nc(-c2ccc(F)cc2)c1-c1ccncc1 (stereo not drawn) [Example B-0598]	2120
CC(NS(=O)(=O)CC12CCC(CC1=O)C2(C)C)c1[nH]nc(-c2ccc(F)cc2)c1-c1ccncc1 (stereo not drawn) [Example B-0611]	650
O=C(NC(Cc1ccccc1)c1[nH]nc(-c2ccc(F)cc2)c1-c1ccncc1)c1cnc2ccccc2n1 (stereo not drawn) [Example B-0828]	7900
C=CCOC(=O)NC(C)c1[nH]nc(-c2ccc(F)cc2)c1-c1ccncc1 (stereo not drawn) [Example B-0534]	410
COc1ccc(NC(=O)NC(Cc2ccccc2)c2[nH]nc(-c3ccc(F)cc3)c2-c2ccncc2)c(OC)c1 (stereo not drawn) [Example B-0744]	23000
CC(Oc1ccccc1)C(=O)NC(C)c1[nH]nc(-c2ccc(F)cc2)c1-c1ccncc1 (stereo not drawn) [Example B-0558]	850
O=C(NCCc1[nH]nc(-c2ccc(F)cc2)c1-c1ccncc1)c1cccc(F)c1 [Example B-1145]	1070
O=S(=O)(NCCc1[nH]nc(-c2ccc(F)cc2)c1-c1ccncc1)c1ccc(S(=O)(=O)c2ccccc2)s1 [Example B-1116]	410
O=S(=O)(NCCc1[nH]nc(-c2ccc(F)cc2)c1-c1ccncc1)c1ccc(F)cc1Cl [Example B-1077]	< 100
C[C@@H](NS(=O)(=O)c1ccc(Cl)cc1)c1[nH]nc(-c2ccc(F)cc2)c1-c1ccncc1 [Example B-0433]	< 100
Cc1cc(C)c(C(=O)NCCc2[nH]nc(-c3ccc(F)cc3)c2-c2ccncc2)c(C)c1 [Example B-1133]	380
CC(NS(=O)(=O)c1cn(C)cn1)c1[nH]nc(-c2ccc(F)cc2)c1-c1ccncc1 (stereo not drawn) [Example B-0663]	880
CC(NC(=O)c1ccccc1C(F)(F)F)c1[nH]nc(-c2ccc(F)cc2)c1-c1ccncc1 (stereo not drawn) [Example B-0545]	1060
Cc1ccc(S(C)(=O)=O)cc1S(=O)(=O)NC(C)c1[nH]nc(-c2ccc(F)cc2)c1-c1ccncc1 (stereo not drawn) [Example B-0668]	270
CC(NS(=O)(=O)c1cccc(C(F)(F)F)c1)c1[nH]nc(-c2ccc(F)cc2)c1-c1ccncc1 (stereo not drawn) [Example B-0648]	< 100
CCCNC(=O)NC(Cc1ccccc1)c1[nH]nc(-c2ccc(F)cc2)c1-c1ccncc1 (stereo not drawn) [Example B-0780]	1100
CC(NS(=O)(=O)c1ccc(F)cc1)c1[nH]nc(-c2ccc(F)cc2)c1-c1ccncc1 (stereo not drawn) [Example B-0562]	220

Same assay, conditions: in vitro P38-alpha kinase; read-out: P38 alpha kinase IC50

SMILES	IC50 [nM]
O=C(c1cccc(Cl)c1Cl)N1CCC(c2[nH]nc(-c3ccc(F)cc3)c2-c2ccncc2)CC1 [Example B-1416]	140
Cc1c(-c2ccncc2)c(-c2ccc(F)cc2)nn1CC(=O)NCCc1ccc(F)cc1 [Example B-2271]	930
CCCCNC(=O)Cn1nc(-c2ccc(F)cc2)c(-c2ccncc2)c1C [Example B-2293]	2110
Cn1cnc(S(=O)(=O)NCCCc2[nH]nc(-c3ccc(F)cc3)c2-c2ccncc2)c1 [Example B-1291]	97
O=C(c1cccc(C(F)(F)F)c1F)N1CCC(c2[nH]nc(-c3ccc(F)cc3)c2-c2ccncc2)CC1 [Example B-1407]	400
Cc1ccccc1S(=O)(=O)N1CCC(c2[nH]nc(-c3ccc(F)cc3)c2-c2ccncc2)CC1 [Example B-1459]	670
COc1cccc(C(=O)N2CCC(c3[nH]nc(-c4ccc(F)cc4)c3-c3ccncc3)CC2)c1 [Example B-1369]	< 100
O=C(NCCCc1[nH]nc(-c2ccc(F)cc2)c1-c1ccncc1)c1ccc(F)cc1C(F)(F)F [Example B-1340]	43
O=C(NCCCc1[nH]nc(-c2ccc(F)cc2)c1-c1ccncc1)c1cc(C(F)(F)F)ccc1F [Example B-1335]	97
O=C(c1cc(C(F)(F)F)ccc1F)N1CCC(c2[nH]nc(-c3ccc(F)cc3)c2-c2ccncc2)CC1 [Example B-1405]	280
O=S(=O)(NCCCc1[nH]nc(-c2ccc(F)cc2)c1-c1ccncc1)c1cc(Cl)cc(Cl)c1 [Example B-1269]	460
Cc1cc(C)c(S(=O)(=O)NCCCc2[nH]nc(-c3ccc(F)cc3)c2-c2ccncc2)c(C)c1 [Example B-1244]	260
Cc1noc(C)c1S(=O)(=O)N1CCC(c2[nH]nc(-c3ccc(F)cc3)c2-c2ccncc2)CC1 [Example B-1435]	1800
Cc1ccccc1S(=O)(=O)NCCCc1[nH]nc(-c2ccc(F)cc2)c1-c1ccncc1 [Example B-1274]	< 100
Cc1ccccc1C(=O)NCCCc1[nH]nc(-c2ccc(F)cc2)c1-c1ccncc1 [Example B-1321]	470
COc1ccc(C)c(S(=O)(=O)N2CCC(c3[nH]nc(-c4ccc(F)cc4)c3-c3ccncc3)CC2)c1 [Example B-1447]	500
Cc1c(-c2ccncc2)c(-c2ccc(F)cc2)nn1CC(=O)NCCCOC(C)C [Example B-2313]	42300
O=C(c1ccccc1)N1CCC(c2[nH]nc(-c3ccc(F)cc3)c2-c2ccncc2)CC1 [Example B-1385]	< 100

Same assay, conditions: read-out: P38 alpha kinase IC50

SMILES	IC50 [nM]
CN(C)[C@H]1CC[C@@H](c2[nH]nc(-c3ccc(C(F)(F)F)cc3)c2-c2ccncc2)CC1 [Example C-102, 5-cis-(4-N,N-DIMETHYLAMINOCYCLOHEXYL)-4-(4-PYRIDYL)-3-[4-(TRIFLUOROMETHYL)PHENYL]PYRAZOLE]	290
